Test results published in patent US20060004019A1, “Steroid sparing agents and methods of using same” (priority 2004, published 2006).

Test system: rat cardiac allografts
Assay: Rat cardiac allograft study, Allograft Study 5, dose response (Table 23)
Format: in vivo

**Q.** Which “graft survival, data normalized to group size” value (“graft survival, data normalized” for short) (day 1, 3 mg/kg s.c.) does the source give for `CC(C)OC(=O)[C@H](Cc1ccc(OC(=O)N2CCN(C)CC2)cc1)NC(=O)[C@H]1N([S+]([O-])c2cccnc2)CSC1(C)C` (stereo partly drawn) here?
**A.** 100%

**Q.** And the “graft survival, data normalized” value (day 2, 3 mg/kg s.c.)?
**A.** 100%

**Q.** And the “graft survival, data normalized” value (day 3, 3 mg/kg s.c.)?
**A.** 100%

**Q.** What about the “graft survival, data normalized” value (day 4, 3 mg/kg s.c.) of the same molecule?
**A.** 100%

**Q.** What about the “graft survival, data normalized” value (day 5, 3 mg/kg s.c.) of the same molecule?
**A.** 100%

**Q.** And the “graft survival, data normalized” value (day 6, 3 mg/kg s.c.)?
**A.** 100%

**Q.** What about the “graft survival, data normalized” value (day 7, 3 mg/kg s.c.) of the same molecule?
**A.** 83%

**Q.** What about the “graft survival, data normalized” value (day 8, 3 mg/kg s.c.) of the same molecule?
**A.** 83%

**Q.** And the “graft survival, data normalized” value (day 9, 3 mg/kg s.c.)?
**A.** 50%

**Q.** What about the “graft survival, data normalized” value (day 10, 3 mg/kg s.c.) of the same molecule?
**A.** 0%

**Q.** And the “graft survival, data normalized” value (day 11, 3 mg/kg s.c.)?
**A.** 0%

**Q.** What about the “graft survival, data normalized” value (day 12, 3 mg/kg s.c.) of the same molecule?
**A.** 0%

**Q.** And the “graft survival, data normalized” value (day 13, 3 mg/kg s.c.)?
**A.** 0%

**Q.** What about the “graft survival, data normalized” value (day 14, 3 mg/kg s.c.) of the same molecule?
**A.** 0%

**Q.** Which “graft survival, data normalized” value (day 1, 10 mg/kg s.c.) does the source give for `CC(C)OC(=O)[C@H](Cc1ccc(OC(=O)N2CCN(C)CC2)cc1)NC(=O)[C@H]1N(S(=O)(=O)c2cccnc2)CSC1(C)C` [listing 1 of 2 here] here?
**A.** 100%

**Q.** What about the “graft survival, data normalized” value (day 2, 10 mg/kg s.c.) of the same molecule?
**A.** 100%

**Q.** What about the “graft survival, data normalized” value (day 3, 10 mg/kg s.c.) of the same molecule?
**A.** 100%

**Q.** What about the “graft survival, data normalized” value (day 4, 10 mg/kg s.c.) of the same molecule?
**A.** 100%

**Q.** What about the “graft survival, data normalized” value (day 5, 10 mg/kg s.c.) of the same molecule?
**A.** 100%

**Q.** And the “graft survival, data normalized” value (day 6, 10 mg/kg s.c.)?
**A.** 100%

**Q.** And the “graft survival, data normalized” value (day 7, 10 mg/kg s.c.)?
**A.** 100%

**Q.** What about the “graft survival, data normalized” value (day 8, 10 mg/kg s.c.) of the same molecule?
**A.** 100%

**Q.** What about the “graft survival, data normalized” value (day 9, 10 mg/kg s.c.) of the same molecule?
**A.** 80%

**Q.** What about the “graft survival, data normalized” value (day 10, 10 mg/kg s.c.) of the same molecule?
**A.** 80%

**Q.** What about the “graft survival, data normalized” value (day 11, 10 mg/kg s.c.) of the same molecule?
**A.** 80%

**Q.** What about the “graft survival, data normalized” value (day 12, 10 mg/kg s.c.) of the same molecule?
**A.** 80%

**Q.** And the “graft survival, data normalized” value (day 13, 10 mg/kg s.c.)?
**A.** 40%

**Q.** What about the “graft survival, data normalized” value (day 14, 10 mg/kg s.c.) of the same molecule?
**A.** 40%

**Q.** For `CC(C)OC(=O)[C@H](Cc1ccc(OC(=O)N2CCN(C)CC2)cc1)NC(=O)[C@H]1N(S(=O)(=O)c2cccnc2)CSC1(C)C` [listing 2 of 2 here], which “graft survival, data normalized” value (day 1, 30 mg/kg s.c.) is on record?
**A.** 100%

**Q.** And the “graft survival, data normalized” value (day 2, 30 mg/kg s.c.)?
**A.** 100%

**Q.** What about the “graft survival, data normalized” value (day 3, 30 mg/kg s.c.) of the same molecule?
**A.** 100%

**Q.** What about the “graft survival, data normalized” value (day 4, 30 mg/kg s.c.) of the same molecule?
**A.** 100%

**Q.** What about the “graft survival, data normalized” value (day 5, 30 mg/kg s.c.) of the same molecule?
**A.** 100%

**Q.** What about the “graft survival, data normalized” value (day 6, 30 mg/kg s.c.) of the same molecule?
**A.** 100%

**Q.** What about the “graft survival, data normalized” value (day 7, 30 mg/kg s.c.) of the same molecule?
**A.** 100%

**Q.** And the “graft survival, data normalized” value (day 8, 30 mg/kg s.c.)?
**A.** 100%

**Q.** What about the “graft survival, data normalized” value (day 9, 30 mg/kg s.c.) of the same molecule?
**A.** 100%

**Q.** And the “graft survival, data normalized” value (day 10, 30 mg/kg s.c.)?
**A.** 100%

**Q.** And the “graft survival, data normalized” value (day 11, 30 mg/kg s.c.)?
**A.** 100%

**Q.** And the “graft survival, data normalized” value (day 12, 30 mg/kg s.c.)?
**A.** 100%

**Q.** What about the “graft survival, data normalized” value (day 13, 30 mg/kg s.c.) of the same molecule?
**A.** 100%

**Q.** What about the “graft survival, data normalized” value (day 14, 30 mg/kg s.c.) of the same molecule?
**A.** 100%
